Experimental data published in patent US20240261296A1, “THERAPEUTIC MODALITIES FOR INHIBITING PANCREATIC BETA CELL IMPAIRMENT AND TREATING DIABETES” (Hadasit Medical Research Serices & Development Ltd., priority 2021, published 2024).

Tests used:
pancreatic β-cell = details: chow and high-fat diet islets; cited from earlier work
MIN6 cells = test: rescue of MIN6 cells from palmitate-induced apoptosis (cleaved caspase 3 western blot; FACS SubG1); assay type: cell-based, murine; details: palmitic acid 0.3 mM, 48 hours; compared to L-798106
Method: (§1) Islet and cell culture: The pancreatic β-cell line MIN6, which is a clonal murine insulin-secreting line, was cultured in DMEM (Biological Industries, Beit Haemek, Israel) supplemented with 11 mM Glucose, 2 mM glutamine, 15% heat-inactivated fetal calf serum (FCS), 100 U/ml penicillin, 100 µg/ml streptomycin and 61 μM β-mercaptoethanol. Human islets were obtained from the European Consortium for Islet Transplantation (ECIT) at the San Raffaele Hospital and from the Niguarda Hospital, (Milan, Italy) and cultured in CMRL-1066 media (Biological Industries, Beit HaEmek, Israel) supplemented with 10% FCS, 5.5 mM glucose, 2 mM L-Glutamine, 100 U/ml penicillin, 100 μg/ml streptomycin and 150 μg/ml gentamycin. Palmitate was added to 1% FCS and 0.5% defatted BSA (Roche, Germany).
Western blotting: Cells were lyzed in Laemmli protein sample buffer, separated on SDS-polyacrylamide gel, and transferred to […] nitrocellulose membranes (Schleicher and Schuell, Dassel, Germany). After blocking in 5% dried skimmed milk, the membranes were first incubated with the appropriate antibodies against: cleaved caspase-3 (Asp175) (Cell Signaling Technology Danvers, MA) and α-tubulin (Sigma-Aldrich.) and then with horseradish peroxidase conjugated anti-rabbit or anti-mouse IgG, followed by analysis with an enhanced chemiluminescence detection kit (Biological Industries, Israel).
The remaining compounds were screened for the ability to rescue β-cells from palmitate-induced apoptosis as compared to the commercial EP3 antagonist L-798106 by measuring the levels of the cleaved caspase 3 apoptotic marker, using Western Blot analysis (FIG. 1). […] Cell extracts were analyzed by western blotting for the presence of cleaved caspase 3 as compared to α-Tubulin.
The ability of the compounds to rescue β-cells from apoptosis was also evaluated using FACS analysis and measuring the SubG1 population (FIG. 2). […] Collected cells were analyzed by FACS and the SubG1 fractions (representing apoptotic cell products or components were compared. The average of 4-6 independent experiments is presented in FIG. 2.

human islet cells = test: Caspase-Glo 3/7 assay in palmitic acid-treated human islets; assay type: cell-based; set-up: rescuing human islet cells from apoptosis, compared with L-798106 / inhibiting or reversing palmitate-induced apoptosis in pancreatic islets of both human donors / inhibition of palmitate-induced apoptosis in human islets, donor 1: dose or concentration left out as unconfirmed; details: palmitic acid, 48 h; for rescuing human islet cells from apoptosis, compared with L-798106: two human donors
Method: as §1
Next, the ability of the compounds to rescue human islet cells from palmitate-induced apoptosis was determined. To this end, the Caspase-Glo 3/7 assay reagent (Promega) was used for caspase 3/7 detection in palmitic acid-treated cells. The reagent provides a proluminescent caspase-3/7 substrate, which contains the tetrapeptide sequence DEVD, in combination with luciferase and a cell-lysing agent. The addition of the reagent directly to the wells results in cell lysis, followed by caspase cleavage of the DEVD substrate, and the generation of luminescence.
Accordingly, human islets from two donors were exposed to the various compounds or to L-798106 for 48 h in the presence of palmitic acid, and the bioluminescence was measured as compared to control cells. FIGS. 3A-3B show the results of the treatment with […] of the compounds in two human donors (FIG. 3A—donor 1, FIG. 3B—donor 2). PA: Palmitate; L: L-798106; RLU: Relative Light Units. The results are average of triplicates or quadruplicates ±SEM (except in islets from L-798106 treated donor 2, representing duplicates).
Next, various concentrations of the compounds were tested in human pancreatic islet cells. Cells obtained from the first healthy donor (donor 1) were incubated in the presence or absence of PA with C13, C5 or L-798106 (L) at concentrations of 5, 2.5 and 0.5 μM. Caspase 3/7 enzymatic activity was measured as described above. The enzymatic activity is presented in FIG. 5A for 5 μM, FIG. 5B for 2.5 μM and FIG. 5C for 0.5 μM as relative light units (RLU/μg protein) and the graphs represent the average of n=3-4.

db/db mice [1] = test: random blood glucose levels in db/db and control mice; assay type: in vivo; details: for average random blood glucose levels in db/db mice: 8 weeks gavage, compared to the vehicle; for random blood glucose levels at 8 weeks: compared with L-798106 treated mice
Method: The effects of the compounds were tested in an in vivo model of diabetes. To this end, C57BLKS/J mice with the leptin receptor mutation (BKS-db; BKS.Cg-Dock7m+/+Leprdb/J), known as an animal model characteristic of human T2DM, were used, when both male and female homozygotes to Leprb mutation (db/db) develop spontaneous T2DM with phenotypes that include: (I) severe obesity, (II) progressive and sustained hyperglycemia, when the course of the disease is markedly influenced by genetic background BLKS (in contrast to regular C57BL/6J background mice with the same mutation (B6-db), (III) glucose intolerance resulting in elevated serum cholesterol, glucose, and triglycerides, and (VI) elevations of plasma blood sugar resulting in severe depletion of the insulin-producing β-cells of the pancreatic islets, and eventually death.
Two sets of experiments with two colonies of homozygote mice were performed with the C5 and C13 compounds (n=5 for each experiment), compared to L-798106. The compounds were administered to 7-8-week-old mice by oral gavage (2.5 mg/kg/day) for eight weeks. Control group (n=10-15) received vehicle (DMSO in PBS). Blood glucose was randomly tested throughout the experiment.
To test the effect of the compounds C15, C17 and C20 on random blood glucose levels, control and db/db mice underwent essentially the same treatment course and measurements as described in Example 9.

db/db mice [2] = test: intraperitoneal glucose tolerance test (IPGTT); assay type: in vivo; details: 8 weeks oral 2.5 mg/kg/day; glucose 1 g/kg; all time points; vs vehicle
Method: Lepr^db/db homozygotes (db/db) and heterozygote Lepr^db/+ (wild type) mice were treated daily with 2.5 mg/kg/day oral administration of the Vehicle, the commercial EP3 antagonist L-798106 and the compounds C5 and C13 for 8 weeks, as described in Example 9. A glucose tolerance test (Intraperitoneal glucose tolerance test, IPGTT) was performed following four weeks and eight weeks of the onset of treatment, as follows. Glucose (1 g/kg) was injected following 8 hours of fasting, and blood glucose was measured at baseline and at 30-, 60-, 90- and 120-minutes post glucose administration.
Heterozygote (wild type) and diabetic db/db mice were treated daily with the Vehicle, L-798106 and the compounds C17 and C20 for 8 weeks, essentially as described in Example 9. A glucose tolerance test (IPGTT) was performed essentially as described in Example 10.

db/db mice [3] = test: Insulin Tolerance Test (ITT); assay type: in vivo; details: 8 weeks oral treatment; 0.75 U/kg insulin; all time points; vs vehicle
Method: An Insulin Tolerance Test (ITT) was conducted to determine the effect of the test compounds on insulin resistance, following oral administration of Vehicle or the tested compounds as described in Example 9. To this end, the different treated groups were further subjected to a subsequent 5-hour fast and then injected with 0.75 U/kg insulin. Blood glucose was measured at the time of insulin injection (baseline level) and at the indicated time intervals thereafter. Blood glucose levels and AUC of the wild-type mice are presented in FIGS. 19A-19B respectively, and blood glucose levels and AUC of the db/db mice are presented in FIGS. 19C-19D respectively. The different test groups as presented in FIGS. 19A-19D are represented as described in Example 9.
To determine the effect of the C17 and C20 compounds on insulin resistance, an ITT was conducted essentially as described in Example 11. Blood glucose levels and AUC of the wild-type mice are presented in FIGS. 27A-27B respectively (n=5-15), and blood glucose levels and AUC of the db/db mice are presented in FIGS. 27C-27D respectively (n=5-10). The different test groups as presented in FIGS. 27A-27D are represented as described in Example 14.

[4] = blood insulin concentrations by serum C-peptide ELISA; assay type: in vivo; details: 8 weeks oral treatment; vs vehicle-treated diabetic mice
Method: At the end of the 8 week-long period of treatment as described in Example 9, mice were sacrificed and blood samples were collected, and analyzed for different parameters as detailed below.
Blood insulin concentrations.
Blood insulin concentrations. Following 8 weeks of treatment, blood samples were collected and the levels of insulin in the collected sera were assessed essentially as described in Example 12. The results are presented in FIG. 28, in which the different test groups as presented in FIG. 28 are represented as described in Example 14 and “ns” indicates non-significant differences. The numbers of tested mice are as follows: vehicle (n=10), L-798106 (n=10), C17 (n=5), C20 (n=5).

SMILES: C=C1C(=O)OC(CCCCCCCC)C1C(=O)O (stereo not drawn) [Compound C75]
- glucose-induced insulin secretion (pancreatic β-cell): markedly reduced
- β cell electrical activity (pancreatic β-cell): markedly reduced

SMILES: COc1cc(/C=C(/CC(=O)O)c2nc3ccccc3s2)ccc1OCc1cccc(C(F)(F)F)c1 [Compound C17, (Z)-3-(benzo[d]thiazol-2-yl)-4-(3-methoxy-4-((3-(trifluoromethyl)benzyl)oxy)phenyl)but-3-enoic acid]
- rescue of β-cells from palmitate-induced apoptosis (cleaved caspase 3; SubG1 population) (MIN6 cells): exceptionally high efficacy
- rescuing human islet cells from apoptosis, compared with L-798106 (human islet cells): to a greater extent than the EP3 antagonist L-798106
- average random blood glucose levels in db/db mice (db/db mice [1]): effective in lowering average blood glucose levels
- random blood glucose levels at 8 weeks (db/db mice [1]): the same blood glucose levels as the L-798106 treated mice
- hyperglycemia in IPGTT, db/db mice (db/db mice [2]): significantly alleviated hyperglycaemia
- glucose levels after insulin injection (insulin sensitivity), db/db mice (db/db mice [3]): Improve Insulin Sensitivity
- blood insulin levels (serum C-peptide) in diabetic mice [4]: the differences did not reach statistical significance

SMILES: COc1cc(/C=C(\CCC(=O)O)c2nc3ccccc3s2)ccc1OCc1ccc(F)cc1 [Compound C20, (E)-4-(benzo[d]thiazol-2-yl)-5-(4-((4-fluorobenzyl)oxy)-3-methoxyphenyl)pent-4-enoic acid]
- rescuing human islet cells from apoptosis, compared with L-798106 (human islet cells): to a greater extent than the EP3 antagonist L-798106
- average random blood glucose levels in db/db mice (db/db mice [1]): effective in lowering average blood glucose levels
- random blood glucose levels at 8 weeks (db/db mice [1]): the same blood glucose levels as the L-798106 treated mice
- hyperglycemia in IPGTT, db/db mice (db/db mice [2]): significantly alleviated hyperglycaemia
- glucose levels after insulin injection (insulin sensitivity), db/db mice (db/db mice [3]): Improve Insulin Sensitivity
- blood insulin levels (serum C-peptide) in diabetic mice [4]: the differences did not reach statistical significance

SMILES: CCn1nc(C)c(S(=O)(=O)Nc2ccc(Cl)cc2C(=O)c2ccc[nH]2)c1C [Compound C10, N-(4-chloro-2-(1H-pyrrole-2-carbonyl)phenyl)-1-ethyl-3,5-dimethyl-1H-pyrazole-4-sulfonamide]
- inhibiting or reversing palmitate-induced apoptosis in pancreatic islets of both human donors (human islet cells): failed to inhibit

SMILES: COc1cc(/C=C(\CCC(=O)O)c2nc3ccccc3s2)ccc1OCc1ccccc1 [Compound C15, (E)-4-(benzo[d]thiazol-2-yl)-5-(4-(benzyloxy)-3-methoxyphenyl)pent-4-enoic acid]
- rescuing human islet cells from apoptosis, compared with L-798106 (human islet cells): to a greater extent than the EP3 antagonist L-798106
- average random blood glucose levels in db/db mice (db/db mice [1]): effective in lowering average blood glucose levels

SMILES: Cc1nn(C)c(C)c1C[C@@H](C)NC(=O)c1ccc(S(=O)(=O)Nc2ccccc2F)cc1 [Compound C9, (R)-4-(N-(2-fluorophenyl)sulfamoyl)-N-(1-(1,3,5-trimethyl-1H-pyrazol-4-yl)propan-2-yl)benzamide]
- inhibition of palmitate-induced apoptosis in human islets, donor 1 (human islet cells): marked inhibitory activity

SMILES: Cc1n[nH]c(C)c1S(=O)(=O)Nc1ccccc1C(=O)N[C@@H](C)c1ccccc1 [Compound C4, (S)-2-((3,5-dimethyl-1H-pyrazole)-4-sulfonamido)-N-(1-phenylethyl)benzamide]
- inhibition of palmitate-induced apoptosis in human islets, donor 1 (human islet cells): moderate inhibitory activity comparable to that of L-798106

SMILES: COc1ccc([C@@H](CC(=O)O)NC(=O)c2cn(Cc3cccc(F)c3)nn2)cc1OC [Compound C12, (R)-3-(3,4-dimethoxyphenyl)-3-(1-(3-fluorobenzyl)-1H-1,2,3-triazole-4-carboxamido)propanoic acid]
- rescuing human islet cells from apoptosis, compared with L-798106 (human islet cells): to a greater extent than the EP3 antagonist L-798106
